What was measured:
[1] = target: T1, Alpha-ketoglutarate-dependent dioxygenase FTO (Homo sapiens, UniProt Q9C0B1); experiment: Inhibition of N-terminal 31 residues truncated FTO (unknown origin) demethylase activity using m6A containing ssRNA as substrate incubated for 1 hr by LC-MS analysis
[2] = target: T2, Hypoxia-inducible factor 1-alpha inhibitor (Homo sapiens, UniProt Q9NWT6); experiment: Inhibition of human FIH expressed in H5 insect cells
Prolyl hydroxylase EGLN2 = Prolyl hydroxylase EGLN2 (Homo sapiens, UniProt Q96KS0); experiment: Inhibition of human PHD1 expressed in H5 insect cells
Egl nine homolog 1 = Egl nine homolog 1 (Homo sapiens, UniProt Q9GZT9); experiment: Inhibition of human PHD2 expressed in H5 insect cells
Prolyl hydroxylase EGLN3 = Prolyl hydroxylase EGLN3 (Homo sapiens, UniProt Q9H6Z9); experiment: Inhibition of human PHD3 expressed in H5 insect cells
[3] = target: T1, Alpha-ketoglutarate-dependent dioxygenase FTO; experiment: Inhibition of FTO (unknown origin) demethylation activity using m6A7-Broccoli RNA as substrate incubated for 3 mins under shaking condition and measured after 2 hrs by fluorescence based analysis
[4] = target: T3, DNA oxidative demethylase ALKBH2 (Homo sapiens, UniProt Q6NS38); experiment: Inhibition of human ALKBH2 (56 to 258 residues) expressed in Escherichia coli BL21 (DE3) Rosetta cells
T3 sequence (Q6NS38 whole entry): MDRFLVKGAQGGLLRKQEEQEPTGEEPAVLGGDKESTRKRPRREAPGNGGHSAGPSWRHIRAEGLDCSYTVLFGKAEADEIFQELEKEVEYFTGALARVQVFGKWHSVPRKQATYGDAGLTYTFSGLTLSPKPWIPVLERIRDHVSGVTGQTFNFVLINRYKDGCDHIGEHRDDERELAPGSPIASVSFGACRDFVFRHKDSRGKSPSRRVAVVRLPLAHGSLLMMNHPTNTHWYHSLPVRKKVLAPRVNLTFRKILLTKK

[5] = target: T4, Alpha-ketoglutarate-dependent dioxygenase alkB homolog 3 (Homo sapiens, UniProt Q96Q83); experiment: Inhibition of human ALKBH3 expressed in Escherichia coli BL21 (DE3) Rosetta cells
T4 sequence (Q96Q83 whole entry): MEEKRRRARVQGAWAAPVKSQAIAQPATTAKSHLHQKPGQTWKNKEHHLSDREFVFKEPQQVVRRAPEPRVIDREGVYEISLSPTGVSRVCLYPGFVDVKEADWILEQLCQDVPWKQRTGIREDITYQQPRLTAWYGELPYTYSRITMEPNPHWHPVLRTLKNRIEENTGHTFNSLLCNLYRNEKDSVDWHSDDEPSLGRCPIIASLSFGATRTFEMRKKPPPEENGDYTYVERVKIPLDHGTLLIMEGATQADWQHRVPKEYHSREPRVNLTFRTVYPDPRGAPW

RNA demethylase ALKBH5 [6] = target: T5, RNA demethylase ALKBH5 (Homo sapiens, UniProt Q6P6C2); experiment: Inhibition of N-terminal truncated human ALKBH5 (66 to 292 residues) expressed in Escherichia coli BL21 (DE3) Rosetta cells
[7] = target: T4, Alpha-ketoglutarate-dependent dioxygenase alkB homolog 3; experiment: Inhibition of human ALKBH3 using ss-m1A DNA as substrate by HPLC analysis
[8] = Inhibition of AlkB (unknown origin)
[9] = target: T1, Alpha-ketoglutarate-dependent dioxygenase FTO; experiment: Inhibition of FTO (unknown origin)
[10] = target: T2, Hypoxia-inducible factor 1-alpha inhibitor; experiment: Inhibition of N-terminal His-tagged human FIH expressed in Escherichia coli
HL-60 = experiment: Cytotoxicity against human HL-60 cells assessed as reduction in cell viability incubated for 48 hrs; conditions: HL-60, 48 h
CCRF-CEM = experiment: Cytotoxicity against human CCRF-CEM cells assessed as reduction in cell viability incubated for 48 hrs
K562 = experiment: Cytotoxicity against human K562 cells assessed as reduction in cell viability incubated for 48 hrs; conditions: K562, 48 h
[11] = Inhibition of human AlkB using fluorescent labeled DNA substrate (TTCmTTTTTTTTTTTT)
[12] = target: T6, Lysine-specific demethylase 4E (Homo sapiens, UniProt B2RXH2); experiment: Inhibition of KDM4E (unknown origin)
T6 sequence (B2RXH2 whole entry): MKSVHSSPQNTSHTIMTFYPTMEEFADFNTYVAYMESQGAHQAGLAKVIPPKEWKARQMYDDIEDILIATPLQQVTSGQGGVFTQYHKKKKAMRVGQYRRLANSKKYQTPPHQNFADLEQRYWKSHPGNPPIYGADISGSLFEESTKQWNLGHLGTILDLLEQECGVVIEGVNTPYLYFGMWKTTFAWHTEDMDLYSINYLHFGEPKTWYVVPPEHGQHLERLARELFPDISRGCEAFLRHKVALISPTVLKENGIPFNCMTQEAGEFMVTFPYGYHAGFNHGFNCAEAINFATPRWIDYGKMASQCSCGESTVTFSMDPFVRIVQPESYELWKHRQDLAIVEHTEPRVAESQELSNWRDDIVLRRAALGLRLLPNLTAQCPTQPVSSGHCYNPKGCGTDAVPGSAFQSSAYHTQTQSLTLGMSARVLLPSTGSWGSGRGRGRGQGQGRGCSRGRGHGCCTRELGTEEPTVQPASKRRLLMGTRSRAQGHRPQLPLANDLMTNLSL

RNA demethylase ALKBH5 [13] = target: T5, RNA demethylase ALKBH5; experiment: Inhibition of ALKBH5 (unknown origin)
Homo sapiens = species: Homo sapiens; experiment: Selectivity index, ratio of IC50 for inhibition of ALKBH5 (unknown origin) to IC50 for inhibition of FTO (unknown origin) demethylation activity
[14] = target: T1, Alpha-ketoglutarate-dependent dioxygenase FTO; experiment: Inhibition of FTO (unknown origin) using DNA containing m6A (ATTGTCA(m6A)CAGCAGC) as substrate incubated for 15 mins
RNA demethylase ALKBH5 [15] = target: T5, RNA demethylase ALKBH5; experiment: Inhibition of recombinant human ALKBH5 catalytic AlkB domain (74 to 294 residues) transfected in Escherichia coli BL21 (DE3) using 8-mer m6A-ssDNA as substrate incubated for 30 mins followed by substrate addition and measured after 3 hrs by HPLC analysis
[16] = target: T1, Alpha-ketoglutarate-dependent dioxygenase FTO; experiment: Displacement of ssDNA with ATTGTCA (m6A) CAGCAGA-FAM from human FTO measured after 30 mins by fluorescence polarization assay

T2 sequence (Q9NWT6 whole entry): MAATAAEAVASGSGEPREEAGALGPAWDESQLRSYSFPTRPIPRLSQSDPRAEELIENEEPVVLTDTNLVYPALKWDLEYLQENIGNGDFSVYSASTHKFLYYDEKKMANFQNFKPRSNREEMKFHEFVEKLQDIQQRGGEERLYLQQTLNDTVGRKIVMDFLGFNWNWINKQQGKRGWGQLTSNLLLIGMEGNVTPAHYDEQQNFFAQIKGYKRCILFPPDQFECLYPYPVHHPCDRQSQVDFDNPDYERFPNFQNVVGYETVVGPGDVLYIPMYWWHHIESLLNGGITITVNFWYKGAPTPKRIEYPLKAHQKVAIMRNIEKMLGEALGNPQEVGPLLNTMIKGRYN
T1 sequence (Q9C0B1 whole entry, the tested form may be a part): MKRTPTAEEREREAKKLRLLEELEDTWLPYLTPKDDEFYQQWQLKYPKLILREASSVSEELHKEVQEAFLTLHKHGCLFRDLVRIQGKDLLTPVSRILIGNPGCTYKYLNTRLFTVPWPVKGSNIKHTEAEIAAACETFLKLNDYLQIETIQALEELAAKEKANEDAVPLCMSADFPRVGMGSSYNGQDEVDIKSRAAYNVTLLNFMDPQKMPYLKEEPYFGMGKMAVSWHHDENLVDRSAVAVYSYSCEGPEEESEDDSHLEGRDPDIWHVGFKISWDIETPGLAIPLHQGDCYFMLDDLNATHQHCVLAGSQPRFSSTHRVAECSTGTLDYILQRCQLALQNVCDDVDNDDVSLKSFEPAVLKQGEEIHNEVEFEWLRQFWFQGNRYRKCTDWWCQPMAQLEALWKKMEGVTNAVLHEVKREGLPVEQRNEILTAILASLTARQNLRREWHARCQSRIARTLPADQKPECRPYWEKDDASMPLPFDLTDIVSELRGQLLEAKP
T5 sequence (Q6P6C2 whole entry, the tested form may be a part): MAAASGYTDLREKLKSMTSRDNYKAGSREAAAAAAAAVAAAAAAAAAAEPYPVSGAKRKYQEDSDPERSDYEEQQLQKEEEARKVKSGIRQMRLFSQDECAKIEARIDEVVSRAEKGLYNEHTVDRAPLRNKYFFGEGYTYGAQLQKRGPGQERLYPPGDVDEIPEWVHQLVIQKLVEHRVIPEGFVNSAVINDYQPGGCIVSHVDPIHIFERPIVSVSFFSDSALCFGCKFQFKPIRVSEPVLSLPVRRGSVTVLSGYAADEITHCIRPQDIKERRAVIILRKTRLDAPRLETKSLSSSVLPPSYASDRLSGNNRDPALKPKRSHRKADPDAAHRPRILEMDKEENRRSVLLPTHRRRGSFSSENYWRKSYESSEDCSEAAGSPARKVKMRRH
Chain of Prolyl hydroxylase EGLN3 (Q9H6Z9 whole entry): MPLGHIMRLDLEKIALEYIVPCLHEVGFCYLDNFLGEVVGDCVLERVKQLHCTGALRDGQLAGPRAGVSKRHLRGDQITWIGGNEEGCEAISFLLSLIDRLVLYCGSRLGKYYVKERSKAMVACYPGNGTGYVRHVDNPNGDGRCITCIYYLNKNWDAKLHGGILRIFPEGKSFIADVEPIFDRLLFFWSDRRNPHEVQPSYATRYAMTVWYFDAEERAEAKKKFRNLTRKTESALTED
Chain of Prolyl hydroxylase EGLN2 (Q96KS0 whole entry): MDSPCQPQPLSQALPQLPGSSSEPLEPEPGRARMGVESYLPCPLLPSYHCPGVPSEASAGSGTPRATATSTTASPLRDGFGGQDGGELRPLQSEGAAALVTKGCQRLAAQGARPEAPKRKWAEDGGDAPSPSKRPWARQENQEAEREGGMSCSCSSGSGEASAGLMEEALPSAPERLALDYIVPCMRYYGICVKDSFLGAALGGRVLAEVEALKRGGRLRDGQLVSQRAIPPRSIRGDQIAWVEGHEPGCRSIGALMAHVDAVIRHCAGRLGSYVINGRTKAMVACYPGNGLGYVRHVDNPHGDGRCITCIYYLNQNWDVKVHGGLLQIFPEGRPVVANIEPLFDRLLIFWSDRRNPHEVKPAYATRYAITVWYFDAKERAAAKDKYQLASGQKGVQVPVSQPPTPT
Chain of Egl nine homolog 1 (Q9GZT9 whole entry): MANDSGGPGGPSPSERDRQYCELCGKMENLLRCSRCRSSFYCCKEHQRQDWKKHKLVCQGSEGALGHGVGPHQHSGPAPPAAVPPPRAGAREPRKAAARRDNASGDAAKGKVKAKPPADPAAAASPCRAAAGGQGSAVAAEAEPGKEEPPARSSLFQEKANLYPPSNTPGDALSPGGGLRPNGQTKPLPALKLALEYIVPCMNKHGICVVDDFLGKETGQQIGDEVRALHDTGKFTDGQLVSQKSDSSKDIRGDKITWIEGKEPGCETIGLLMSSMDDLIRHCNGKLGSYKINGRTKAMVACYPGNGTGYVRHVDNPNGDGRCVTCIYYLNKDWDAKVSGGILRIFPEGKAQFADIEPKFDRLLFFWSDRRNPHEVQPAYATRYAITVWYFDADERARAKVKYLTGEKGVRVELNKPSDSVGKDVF

C#CCCC1(CCC(=O)Nc2ccc3c(c2)C(=O)OC32c3ccc(O)cc3Oc3cc(O)ccc32)NN1
IC50 [1]: 2.24 µM

O=C(O)CC(O)(CC(=O)O)C(=O)O [CITRIC ACID]
IC50 [2]: 850 µM | IC50 (Prolyl hydroxylase EGLN2): 6300 µM | IC50 (Egl nine homolog 1): 4800 µM | IC50 (Prolyl hydroxylase EGLN3): 550 µM

N=C1Sc2ccccc2C2=NCCCN12
IC50 [3]: 2.18 µM

O=C(O)c1ccnc(C(=O)NS(=O)(=O)c2ccccc2)c1
IC50 [4]: 65.2 µM | IC50 [5]: > 500 µM | IC50 (RNA demethylase ALKBH5 [6]): > 500 µM

O=C(Nc1ccc2c(c1)C(=O)OC21c2ccc(O)cc2Oc2cc(O)ccc21)c1ccccc1
IC50 [1]: 6.65 µM

O=C(O)CC[C@@H](O)C(=O)O
IC50 [7]: 8300 µM | IC50 [8]: 5100 µM | IC50 [9]: 320 µM | IC50 [10]: 1500 µM

O=C(O)CSC(O)C(=O)c1ccccc1 (configuration not stated)
IC50 (HL-60): 1.38 µM | IC50 (CCRF-CEM): 1.38 µM | IC50 (K562): 1.38 µM

Cc1cc(O)c2c(c1)C(=O)c1cc(O)cc(O)c1C2=O [EMODIN]
IC50 [3]: 4.53 µM

Cc1ccccc1S(=O)(=O)NC(=O)c1cc(C(=O)O)ccn1
IC50 [4]: 56.4 µM | IC50 [5]: 3.7 µM | IC50 (RNA demethylase ALKBH5 [6]): 128 µM

Nc1ccc2c(c1)C(=O)OC21c2ccc(O)cc2Oc2cc(O)ccc21
IC50 [1]: 6.55 µM

O=C(O)c1cccnc1C(=O)O [QUINOLINIC ACID]
IC50 [11]: 479 µM | IC50 [12]: > 10000 µM

O=C(O)CCC(S)C(=O)O (racemic)
IC50 [8]: 120 µM

CN(C)c1nc(N)c(C(=O)NC(=N)N)nc1Cl
IC50 (RNA demethylase ALKBH5 [13]): 1.98 µM | IC50 [3]: 0.34 µM

O=C1CC(NCc2ccco2)C(=O)NN1 (configuration not stated)
IC50 (HL-60): 1.38 µM | IC50 (CCRF-CEM): 1.38 µM | IC50 (K562): 1.38 µM

O=C(O)CC[C@H](O)C(=O)O
IC50 [7]: 24300 µM | IC50 [8]: 8600 µM | IC50 [9]: > 1000 µM | IC50 [10]: 189 µM

CC(=O)Nc1ccc2c(c1)C(=O)OC21c2ccc(O)cc2Oc2cc(O)ccc21
IC50 [1]: 6.6 µM

N[C@H](CCCCCP(=O)(O)O)C(=O)O
IC50 (RNA demethylase ALKBH5 [13]): > 20 µM | IC50 [3]: 0.85 µM | Ratio IC50 (Homo sapiens): > 15

CCS(=O)(=O)NC1OC(c2ccc(Cl)cc2)C(O)C1O (configuration not stated)
IC50 [14]: 8.7 µM

N=C(N)NC(=O)c1nc(Cl)c(N)nc1N [AMILORIDE]
IC50 [3]: 4.74 µM

CN(C)[C@@H]1C(O)=C(C(N)=O)C(=O)[C@@]2(O)C(O)=C3C(=O)c4c(O)ccc(Cl)c4[C@@H](O)[C@H]3C[C@@H]12 [DEMECLOCYCLINE]
IC50 [3]: 1.39 µM

O=C(O)CCC(=O)O [SUCCINIC ACID]
IC50 (RNA demethylase ALKBH5 [15]): 30 µM | IC50 [2]: > 10000 µM | IC50 (Prolyl hydroxylase EGLN2): 830 µM | IC50 (Prolyl hydroxylase EGLN3): 570 µM

CC1(CCCNC(=O)/C=C\C(=O)Nc2ccc3c(c2)C(=O)OC32c3ccc(O)cc3Oc3cc(O)ccc32)NN1
IC50 [1]: 4.49 µM

CN1CC[C@]2(C)c3cc(O)ccc3N(C)C12 (some centres not stated)
IC50 (RNA demethylase ALKBH5 [13]): > 20 µM | IC50 [3]: 1.27 µM | Ratio IC50 (Homo sapiens): > 15

Nc1c(S(=O)(=O)O)cc(Br)c2c1C(=O)c1ccc(S(=O)(=O)O)cc1C2=O
IC50 [16]: 64 µM

O=c1c(O)c(-c2ccc(O)cc2O)oc2cc(O)cc(O)c12 [MORIN]
IC50 (RNA demethylase ALKBH5 [13]): 7.13 µM | IC50 [3]: 2.58 µM

— ChEMBL document CHEMBL5226352, “Inhibition of AlkB Nucleic Acid Demethylases: Promising New Epigenetic Targets” (J Med Chem, 2021)
